Residues, ends and D or L forms follow the SMILES beside them.
What was measured:
[1] = tested on: Nucleic Acid; experiment: DNA cleaving activity was determined; +++++ indicates 100% of Ser-His cleavage activity; assay type: functional
[2] = tested on: Nucleic Acid; experiment: DNA cleaving activity was determined; +/- indicates marginally detectable cleavage activity; assay type: functional

| SMILES | Activity [1] | Activity [2] |
| --- | --- | --- |
| N[C@@H](CO)C(=O)N[C@@H](Cc1c[nH]cn1)C(=O)O (H-Ser-His-OH) | ++++ | – |
| C[C@@H](O)[C@H](N)C(=O)N[C@@H](Cc1c[nH]cn1)C(=O)O (H-Thr-His-OH) | – | +/- |
